The values below come from patent US10787452B2 (Vertex Pharmaceuticals Incorporated, priority 2012, dated 2020).

The assay relates to HCT116 colorectal cancer cells. Description: Cisplatin sensitization assay (96 h cell viability MTS).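 Note: compound concentration needed to lower the Cisplatin-alone IC50 by a set fold.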 In kind it is cell-based. Conditions: 96 h MTS, compound plus Cisplatin. In short, it runs like this: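 Full-matrix combination: compound × cisplatin, 2-fold dilutions from 10 μM top final, co-added; 96 h, 37° C, 5% CO2; MTS read-out after 1 h.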
Regarding `Nc1nn2cc(F)cnc2c1C(=O)Nc1cncc(F)c1N1CCC(C(=O)NCCN2CCC2)CC1` [I-G-42, 2-amino-N-(4-(4-((2-(azetidin-1-yl)ethyl)carbamoyl)piperidin-1-yl)-5-fluoropyridin-3-yl)-6-fluoropyrazolo[1,5-a]pyrimidine-3-carboxamide], the “Cisplatin Sensitization Assay” value was “+++ (Compounds with a Cisplatin sensitization value of <0.02 μM are marked with “+++.”)”.

Regarding `Nc1nn2cc(F)cnc2c1C(=O)Nc1cncc(F)c1N1CCC(C(=O)N2CC(N3CCCC3)C2)CC1` [I-G-43, 2-amino-6-fluoro-N-(5-fluoro-4-(4-(3-(pyrrolidin-1-yl)azetidine-1-carbonyl)piperidin-1-yl)pyridin-3-yl)pyrazolo[1,5-a]pyrimidine-3-carboxamide], the “Cisplatin Sensitization Assay” value is given as “+++ (Compounds with a Cisplatin sensitization value of <0.02 μM are marked with “+++.”)”.

Consider `Nc1nn2cc(F)cnc2c1C(=O)Nc1cncc(F)c1N1CCC(C(=O)N2CC3CCC(C2)N3)CC1` [I-G-44, N-(4-(4-(3,8-diazabicyclo[3.2.1]octane-3-carbonyl)piperidin-1-yl)-5-fluoropyridin-3-yl)-2-amino-6-fluoropyrazolo[1,5-a]pyrimidine-3-carboxamide], for which the “Cisplatin Sensitization Assay” value is given as “+++ (Compounds with a Cisplatin sensitization value of <0.02 μM are marked with “+++.”)”.

On to `C[C@@H]1CN(C(=O)C2CCN(c3c(F)cncc3NC(=O)c3c(N)nn4cc(F)cnc34)CC2)CCN1` [I-G-45, (R)-2-amino-6-fluoro-N-(5-fluoro-4-(4-(3-methylpiperazine-1-carbonyl)piperidin-1-yl)pyridin-3-yl)pyrazolo[1,5-a]pyrimidine-3-carboxamide], for which the “Cisplatin Sensitization Assay” value was “+++ (Compounds with a Cisplatin sensitization value of <0.02 μM are marked with “+++.”)”.

In the case of `Nc1nn2cc(F)cnc2c1C(=O)Nc1cncc(F)c1N1CCC(C(=O)N2CCN3CCC2C3)CC1` (stereo not shown) [I-G-46, N-(4-(4-(1,4-diazabicyclo[3.2.1]octane-4-carbonyl)piperidin-1-yl)-5-fluoropyridin-3-yl)-2-amino-6-fluoropyrazolo[1,5-a]pyrimidine-3-carboxamide], the “Cisplatin Sensitization Assay” value is given as “+++ (Compounds with a Cisplatin sensitization value of <0.02 μM are marked with “+++.”)”.

For the molecule `C[C@H]1CN(C(=O)C2CCN(c3c(F)cncc3NC(=O)c3c(N)nn4cc(F)cnc34)CC2)CCN1C` [I-G-47, (S)-2-amino-N-(4-(4-(3,4-dimethylpiperazine-1-carbonyl)piperidin-1-yl)-5-fluoropyridin-3-yl)-6-fluoropyrazolo[1,5-a]pyrimidine-3-carboxamide], the “Cisplatin Sensitization Assay” value is listed as “+++ (Compounds with a Cisplatin sensitization value of <0.02 μM are marked with “+++.”)”.

For the molecule `Nc1nn2cc(F)cnc2c1C(=O)Nc1cncc(Cl)c1N1CCC(C(=O)N2CCNCC2)CC1` [I-G-48, 2-amino-N-(5-chloro-4-(4-(piperazine-1-carbonyl)piperidin-1-yl)pyridin-3-yl)-6-fluoropyrazolo[1,5-a]pyrimidine-3-carboxamide], the “Cisplatin Sensitization Assay” value is “+++ (Compounds with a Cisplatin sensitization value of <0.02 μM are marked with “+++.”)”.

On to `Nc1nn2cc(F)cnc2c1C(=O)Nc1cncc(F)c1N1CCC(C(=O)N2CC(N3CCC3)C2)CC1` [I-G-49, N-(4-(4-([1,3′-biazetidine]-1′-carbonyl)piperidin-1-yl)-5-fluoropyridin-3-yl)-2-amino-6-fluoropyrazolo[1,5-a]pyrimidine-3-carboxamide], for which the “Cisplatin Sensitization Assay” value is “+++ (Compounds with a Cisplatin sensitization value of <0.02 μM are marked with “+++.”)”.

Consider `C[C@@H]1CN(C(=O)C2CCN(c3c(F)cncc3NC(=O)c3c(N)nn4cc(F)cnc34)CC2)CCN1C` [I-G-50, (R)-2-amino-N-(4-(4-(3,4-dimethylpiperazine-1-carbonyl)piperidin-1-yl)-5-fluoropyridin-3-yl)-6-fluoropyrazolo[1,5-a]pyrimidine-3-carboxamide], for which the “Cisplatin Sensitization Assay” value is on record as “+++ (Compounds with a Cisplatin sensitization value of <0.02 μM are marked with “+++.”)”.

With `Nc1nn2cc(F)cnc2c1C(=O)Nc1cncc(F)c1N1CCC(C(=O)N2CC3CNCC3C2)CC1` (stereo not shown) [I-G-51, 2-amino-6-fluoro-N-(5-fluoro-4-(4-(octahydropyrrolo[3,4-c]pyrrole-2-carbonyl)piperidin-1-yl)pyridin-3-yl)pyrazolo[1,5-a]pyrimidine-3-carboxamide], the “Cisplatin Sensitization Assay” value is on record as “+++ (Compounds with a Cisplatin sensitization value of <0.02 μM are marked with “+++.”)”.

For the molecule `CN1C2CCC1CN(C(=O)C1CCN(c3c(F)cncc3NC(=O)c3c(N)nn4cc(F)cnc34)CC1)C2` [I-G-52, 2-amino-6-fluoro-N-(5-fluoro-4-(4-(8-methyl-3,8-diazabicyclo[3.2.1]octane-3-carbonyl)piperidin-1-yl)pyridin-3-yl)pyrazolo[1,5-a]pyrimidine-3-carboxamide], the “Cisplatin Sensitization Assay” value is recorded as “+++ (Compounds with a Cisplatin sensitization value of <0.02 μM are marked with “+++.”)”.

For the molecule `CN1CC2CC1CN2C(=O)C1CCN(c2c(F)cncc2NC(=O)c2c(N)nn3cc(F)cnc23)CC1` (stereo not shown) [I-G-53, 2-amino-6-fluoro-N-(5-fluoro-4-(4-(5-methyl-2,5-diazabicyclo[2.2.1]heptane-2-carbonyl)piperidin-1-yl)pyridin-3-yl)pyrazolo[1,5-a]pyrimidine-3-carboxamide], the “Cisplatin Sensitization Assay” value is “+++ (Compounds with a Cisplatin sensitization value of <0.02 μM are marked with “+++.”)”.

With `CN1CCN(C(=O)C2(C)CCN(c3c(F)cncc3NC(=O)c3c(N)nn4cc(F)cnc34)CC2)CC1` [I-G-54, 2-amino-6-fluoro-N-(5-fluoro-4-(4-methyl-4-(4-methylpiperazine-1-carbonyl)piperidin-1-yl)pyridin-3-yl)pyrazolo[1,5-a]pyrimidine-3-carboxamide], the “Cisplatin Sensitization Assay” value is on record as “+++ (Compounds with a Cisplatin sensitization value of <0.02 μM are marked with “+++.”)”.

With `Cc1cncc(NC(=O)c2c(N)nn3cc(F)cnc23)c1N1CCC(C(=O)N2CCN(C)CC2)CC1` [I-G-55, 2-amino-6-fluoro-N-(5-methyl-4-(4-(4-methylpiperazine-1-carbonyl)piperidin-1-yl)pyridin-3-yl)pyrazolo[1,5-a]pyrimidine-3-carboxamide], the “Cisplatin Sensitization Assay” value is “+++ (Compounds with a Cisplatin sensitization value of <0.02 μM are marked with “+++.”)”.

With `Cc1cncc(NC(=O)c2c(N)nn3cc(F)cnc23)c1N1CCC(C(=O)N2CCNCC2)CC1` [I-G-56, 2-amino-6-fluoro-N-(5-methyl-4-(4-(piperazine-1-carbonyl)piperidin-1-yl)pyridin-3-yl)pyrazolo[1,5-a]pyrimidine-3-carboxamide], the “Cisplatin Sensitization Assay” value is on record as “+++ (Compounds with a Cisplatin sensitization value of <0.02 μM are marked with “+++.”)”.

With `Nc1nn2cc(F)cnc2c1C(=O)Nc1cncc(F)c1N1CCC(C(=O)N2CC(N3CCCCC3)C2)CC1` [I-G-57, 2-amino-6-fluoro-N-(5-fluoro-4-(4-(3-(piperidin-1-yl)azetidine-1-carbonyl)piperidin-1-yl)pyridin-3-yl)pyrazolo[1,5-a]pyrimidine-3-carboxamide], the “Cisplatin Sensitization Assay” value is recorded as “+++ (Compounds with a Cisplatin sensitization value of <0.02 μM are marked with “+++.”)”.

For the molecule `Nc1nn2cc(F)cnc2c1C(=O)Nc1cncc(F)c1N1CCC(C(=O)N2CC[C@H](N3CCCC3)C2)CC1` [I-G-58, (S)—N-(4-(4-([1,3′-bipyrrolidine]-1′-carbonyl)piperidin-1-yl)-5-fluoropyridin-3-yl)-2-amino-6-fluoropyrazolo[1,5-a]pyrimidine-3-carboxamide], the “Cisplatin Sensitization Assay” value is “+++ (Compounds with a Cisplatin sensitization value of <0.02 μM are marked with “+++.”)”.

As for `Nc1nn2cc(F)cnc2c1C(=O)Nc1cncc(F)c1N1CCC(C(=O)N2CCC(N3CCCC3)CC2)CC1` [I-G-59, 2-amino-6-fluoro-N-(5-fluoro-4-(4-(4-(pyrrolidin-1-yl)piperidine-1-carbonyl)piperidin-1-yl)pyridin-3-yl)pyrazolo[1,5-a]pyrimidine-3-carboxamide], the “Cisplatin Sensitization Assay” value is recorded as “+++ (Compounds with a Cisplatin sensitization value of <0.02 μM are marked with “+++.”)”.

Consider `Nc1nn2cc(F)cnc2c1C(=O)Nc1cncc(F)c1N1CCC(C(=O)N2CCC(N3CCCCC3)CC2)CC1` [I-G-60, N-(4-(4-([1,4′-bipiperidine]-1′-carbonyl)piperidin-1-yl)-5-fluoropyridin-3-yl)-2-amino-6-fluoropyrazolo[1,5-a]pyrimidine-3-carboxamide], for which the “Cisplatin Sensitization Assay” value is listed as “+++ (Compounds with a Cisplatin sensitization value of <0.02 μM are marked with “+++.”)”.

Take `Nc1nn2cc(F)cnc2c1C(=O)Nc1cncc(F)c1N1CCC(C(=O)N2CCNC3CC32)CC1` (stereo not shown) [I-G-62, N-(4-(4-(2,5-diazabicyclo[4.1.0]heptane-2-carbonyl)piperidin-1-yl)-5-fluoropyridin-3-yl)-2-amino-6-fluoropyrazolo[1,5-a]pyrimidine-3-carboxamide]: the “Cisplatin Sensitization Assay” value is “+++ (Compounds with a Cisplatin sensitization value of <0.02 μM are marked with “+++.”)”.

`CC1(O)CN(C(=O)C2CCN(c3c(F)cncc3NC(=O)c3c(N)nn4cc(F)cnc34)CC2)C1` [I-G-63, 2-amino-6-fluoro-N-(5-fluoro-4-(4-(3-hydroxy-3-methylazetidine-1-carbonyl)piperidin-1-yl)pyridin-3-yl)pyrazolo[1,5-a]pyrimidine-3-carboxamide]: the “Cisplatin Sensitization Assay” value is recorded as “+++ (Compounds with a Cisplatin sensitization value of <0.02 μM are marked with “+++.”)”.

Consider `Nc1nn2cc(F)cnc2c1C(=O)Nc1cncc(F)c1N1CCC(C(=O)N2CCC(N3CCCCC3)C2)CC1` (stereo not shown) [I-G-64, 2-amino-6-fluoro-N-(5-fluoro-4-(4-(3-(piperidin-1-yl)pyrrolidine-1-carbonyl)piperidin-1-yl)pyridin-3-yl)pyrazolo[1,5-a]pyrimidine-3-carboxamide], for which the “Cisplatin Sensitization Assay” value is listed as “+++ (Compounds with a Cisplatin sensitization value of <0.02 μM are marked with “+++.”)”.
